Measured values taken from patent publication US20200216492A1, “USE OF C-TERMINALLY EXTENDED PEPTIDES TO DISRUPT INHIBITOR NK CELL RECEPTOR INTERACTIONS WITH MHC I” (La Jolla Institute for Allergy and Immunology, priority 2016, published 2020).
Entries after “also recorded” stand apart in the source; their conditions may differ.

Columns and labels:
HLA-A*02:01 = molecular target: T1, HLA-A*02:01 (Homo sapiens, UniProt P04439, D140Y/D185E/D98H/E176V/E277Q/G131W/G231S/I119V/I121R/I166T/I218V/L300P/L318F/N151K/N90K/P208A/P217A/Q86G/Q94H/R138H/R169H/T345S); assay: Thermal denaturation assay (differential scanning fluorimetry) of HLA-A*02:01-β2m-peptide complexes; format: binding; conditions: for relative stability of HLA-peptide complex: thermal denaturation
T1 construct: HLA-A*02:01 class I heavy chain ectodomain (residues 21-274); made in house
Protocol: HLA-A*02:01-β2m-peptide complexes with the various different peptides were analyzed for thermal denaturation by differential scanning fluorimetry using a LightCycler 480 (Roche). HLA-A*02:01-β2m-peptide complexes with different peptides at 100 μM in reaction buffer (20 mM Tris-HCl pH 7.5, 150 mM NaCl) were used as stock solutions. Each reaction mixture constituted of 1-2 μl protein complex stock solution, 2l of SYPRO Orange dye (100×, Invitrogen) made up to 20 μl in reaction buffer in a 96-well white plate compatible with the instrument. A temperature gradient from 20° C.-85° C. at steps of 0.06° C./sec and 10 acquisitions/° C. was used for the experiment. Each experiment with individual protein-peptide complex was repeated thrice. A melt curve of the total fluorescence of the run was plotted against temperature. The minima of the first derivative of the melt curve from raw fluorescence data (temperature differential of absolute fluorescence versus temperature) provided the meting temperature (Tm) for individual HLA-A*02:01-β2m peptide complexes (inflection point of the melt curve).
To determine the relative stability of the individual HLA-A*02:01-peptide complexes the inventors followed their thermal denaturation by differential scanning fluorimetry. The melting temperatures (Tm) obtained from the melt curves allowed the inventors to compare the stability of the different complexes (FIG. 3).

HLA-C*03:07 = HLA-C*03:07 (Homo sapiens, UniProt P10321, A176E/A330V/A97T/C25G/C350S/D114A/D33Y/E197K/L119I/L127V/L171W/L218V/M285V/M309V/M331V/N104K/P208H/Q277E/Q291P/R243W/R45H/S101N/S123Y/S140Y/S297R/S48A/T118I/T187L/T329A/T363A/V319A); assay: Refolding of HLA-C*03:07 with peptides (SEC, SDS-PAGE, MALDI-TOF); format: binding; conditions: gel filtration
From the text: Note that A280 scale is different between the three panels.
Core peptides were chosen that have been crystallized in complex with HLA-B as well as HLA-C and designed variants containing C-terminal extensions (Table 3). […] HLA-C can be optimized while producing more HLA-B complexes for crystallization and structure determination using established methods. Crystallization is not major problem, since only HLA I-peptide complexes are crystallized and not ternary complexes containing a receptor. For HLA-A2*02:01, all 9 complexes were successfully crystallized thereby establishing a routine procedure. Structure determination is performed using molecular replacement (MR), using available reference structures.

KIR2DL1-Fc = KIR2DL1-Fc binding to immobilized HLA-peptide complexes by BLI (Octet RED96); conditions: 2 μM KIR2DL1-Fc, biotinylated complex on SA sensor tip
Sequence of KIR2DL1-Fc (P43626 22-245 limits assumed): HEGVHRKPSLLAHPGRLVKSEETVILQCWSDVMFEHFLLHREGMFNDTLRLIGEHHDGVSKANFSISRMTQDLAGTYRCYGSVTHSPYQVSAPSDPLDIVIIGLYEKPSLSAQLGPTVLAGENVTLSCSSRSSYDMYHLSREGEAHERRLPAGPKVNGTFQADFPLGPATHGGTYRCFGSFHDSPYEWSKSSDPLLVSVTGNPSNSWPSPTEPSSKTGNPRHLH
From the text: Binding to buffer only was used for background subtraction.
Synthetic DNA constructs of KIR3DL1 (HLA-B*57:01) and KIR2DL1 (HLA-C*04:01) are cloned and expressed as Fc-fusion constructs in SF9 insect cells. HLA-B*57:01 and […] are refolded with both core and extending peptides and captured on a Strepavidin sensor chip for SPR analysis or a SA sensor tip for BLI analysis as for HLA-A*02:01. […] KIRDL-Fc fusion proteins are, therefore, used to measure the binding affinity, since their bivalency will increase overall binding affinity. […] Further, KIRDL-Fc fusion proteins are immobilized using an anti-human Fc antibody capture chip (GE Healthcare) and the binding of HLA-tetramers to the immobilized KIRDL receptors measured. This increases affinity even further (tetra-valency versus bivalency). […] The C-terminally extended peptides all disrupt KIR2DL1 binding, regardless of whether they induce the “lysine lift” or the “tyrosine swing” (FIG. 19). […] This is proof of concept that structural alterations around the F pocket of HLA alleles that form the primary binding site for KIRL abrogate receptor binding.

HLA-A*02:01 mutants = assay: Refolding of HLA-A*02:01 position 80 mutants with extending peptides (SEC); format: binding; conditions: increase in incorrectly folded heavy chain as indicator, preliminary data
Protocol: Refolding efficiency is judged by comparing peak high (at 45 kDa) with that of the preceding oligomeric peak.
It is possible that replacing T80 with amino acids Ile, Lys, and Asn as found in other common alleles may affect refolding. […] Whether a flexible F pocket in HLA-C*03:07 can be created was tested by exchange against the amino acids from HLA-A*02:01, either Thr80 or the combination of Thr80 and Thr142 together. Other amino acids at position 80 or mutate other alleles at position 80 and 142 were introduced as necessary.

[1] = test system: HLA-B*58:02 transfected 721.221 cells; assay: Cytotoxicity assay using KIR3DL1 transfected YTS cells and peptide-pulsed 721.221 target cells; format: cell-based; conditions: peptide 100 μM; KIR3DL1 YTS effectors; E:T 10:1; 2-4 hrs; preliminary study
Protocol: The ability of KIR3DL1 or KIR2DL1 transfected YTS cells to kill HLA expressing 721.221 target cells is tested. Since YTS cells are devoid of any inhibitory KIR, expression of a single KIR will tolerize YTS cells against the 721.221 target cell expressing the allele-matched HLA-B*58:02 (instead of HLA-B*57:01 used for SPR and crystallography) or HLA-C*04:01. HLA-B*58:02 is identical in sequence in the binding region for KIR3DL1 and reported to bind KIR3DL1 allele. 721.221/HLA-C*04:01 cells expressing a TAP inhibitor as well as the corresponding KIR2DL1 YTS transfectants have been obtained. In these 721.221 cells, peptides have to be loaded on the empty HLA-C on the cell surface. The advantage of this system is that the degree of inhibition can be titrated using different concentration of peptides. Target cell killing is assessed using a europium-based fluorescence killing assay as described (67). In this setup, the antibody IPH2101 serves as a positive control for killing, and the efficacy of extending peptides to induce killing is compared. IPH2101 is expressed, for which the sequence is available (Patent application: PCT/US2013/063068), similar to Fc fusion proteins in insect cells. […]
Cytotoxicity assay using KIR transfected YTS cells (FIG. 21) has been established. […] Finally, fluorescence was measured in a Perkin Elmer EnVision™ time-resolved fluorometer. […]

[2] = test system: KIR3DL1 expressing YTS cells; assay: HLA-B*57:01/peptide tetramer staining of KIR3DL1 transfected YTS cells (flow cytometry); format: cell-based; conditions: KIR3DL1 positive and negative YTS cells; 10, 50 and 100 μg/ml tetramer; 30 min on ice; preliminary study
Protocol: KIR3DL1 negative (top) and positive (bottom) YTS cells were analyzed for their staining using the indicated HLA-B/peptide tetramer. Binding of the tetramer to KIR3DL1 negative cells likely indicates binding of the tetramer to another receptor, such as 2B4 and, therefore, different KIR transfected cells, such as K562 cells will be used next.
In parallel, whether the HLA-tetramers can stain K562 cells that have been transfected with the corresponding allele-matched KIRDL receptor is tested. Without being limited to any particular theory, it is expected that HLA tetramers presenting the core peptide will stain K562 cells, while staining with tetramers presenting the C-terminally extended peptides is greatly impaired and will overlap with the isotype control. Appropriate anti KIR antibodies are used as positive control (Anti-KIR3DL1 clone DX9 and anti-KIR2DL1 clone HP-MA4 from Biolegend). […]

Q: For GLKEGIPAL, which “melting temperature (Tm) of HLA-A*02:01-peptide complex” value (HLA-A*02:01; differential scanning fluorimetry, SYPRO Orange, 20-85 °C) is on record?
A: 63 °C

Q: What about the “relative stability of HLA-peptide complex” value (HLA-A*02:01) of the same sequence?
A: less stable complex as compared to peptide GLLPELPAV; also recorded: as stable as those with longer peptides

Q: GAVDPLLAL [G9L, reference compound] was tested. Which “refolding of HLA-C*03:07 with peptide” value (HLA-C*03:07) did it give?
A: protein complex of proper size was observed

Q: GAVDPLLALD [G10D] was tested. Which “refolding of HLA-C*03:07 with peptide” value (HLA-C*03:07) did it give?
A: protein complex of proper size was observed

Q: With YFDPANGKFDN [Y11N] as the sequence, how does the “KIR2DL1-Fc binding to HLA-C*04:01-peptide complex” value (KIR2DL1-Fc) read?
A: abrogated

Q: How did the “refolding efficiency of HLA-A*02:01 position 80 mutants with peptide (order of residues)” value (HLA-A*02:01 mutants) turn out when “GLKEGIPALDN [G11N, T. gondii C-terminally extending peptide]” was run?
A: Ile80 (HLA-B)>Thr80 (HLA-A)>Lys80 (HLA-C*04:01)>Asn80 (HLA-C*03:07)

Q: “YLSPIASPLLDGKSLR [T. gondii C-terminally extending peptide]” was tested. Which “difference in Tm between complex with extended peptide and with nested peptide” value (HLA-A*02:01; extended versus equivalent nested peptide) did it give?
A: about 7 °C

Q: Which “induction of YTS NK cell killing of target cells” value [1] does the source give for LSSPVTKSFK [L10K] here?
A: does not induce any killing

Q: With GLLPELPAVGGNE as the sequence, how does the “relative stability of HLA-peptide complex” value (HLA-A*02:01) read?
A: as stable as

Q: For YFDPANGKFK [Y10K], which “KIR2DL1-Fc binding to HLA-C*04:01-peptide complex” value (KIR2DL1-Fc) is on record?
A: abrogated

Q: With YFDPANGKF [Y9F, reference compound] as the sequence, how does the “KIR2DL1-Fc binding to HLA-C*04:01-peptide complex” value (KIR2DL1-Fc) read?
A: strong binding signal

Q: Which results are given for LSSPVTKSFDGK [L12K]?
A: binding of Alexa Fluor-647 HLA-B*57:01/peptide tetramer to YTS cells [2]: bound to YTS cells, regardless whether KIR3DL1 was expressed or not; induction of YTS NK cell killing of target cells [1]: induce YTS NK cell killing; also recorded: appears to induce killing

Q: With “LSSPVTKSF [L9F, core self-peptide for HLA-B*57:01, reference compound]” as the sequence, how does the “KIR2DL1-Fc binding to allele-mismatched HLA-B*57:01-peptide complex” value (KIR2DL1-Fc) read?
A: does not bind

Q: And the “binding of Alexa Fluor-647 HLA-B*57:01/peptide tetramer to YTS cells” value [2]?
A: bound to YTS cells, regardless whether KIR3DL1 was expressed or not
